The record followed here is PubChem BioAssay (NCI).

Structures are written as SMILES.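 Grown in 96-well plates, cells were treated for 48 hours with each compound at five concentrations. Insufficient inhibition: endpoint recorded as highest concentration tested. The concentration for 50% growth inhibition is given as GI50. TGI marks complete inhibition of growth.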

Among the test systems are PC-3 prostate; SF-539 CNS; M14 melanoma; HCT-15 colon; MCF7 breast; NCI-H460 lung; KM12 colon; SNB-19 CNS; MOLT-4 leukemia; UACC-257 melanoma.
Common to all, as to test: NCI anticancer screen, dose series, 48 h

In the case of `CCCCc1ccc2nc(NC(=O)OC)[nH]c2c1`, the GI50 was 0.0413 µM with PC-3 prostate; 0.0366 µM with SF-539 CNS; 0.0351 µM with M14 melanoma; 0.0434 µM in the experiment with HCT-15 colon; 0.0343 µM with MCF7 breast; 0.0378 µM in the experiment with NCI-H460 lung. The figures for the GI50 with KM12 colon, in the experiment with SNB-19 CNS and with MOLT-4 leukemia were 0.0337 µM, 0.0487 µM and 0.0382 µM, respectively. Also, the TGI with PC-3 prostate is > 82.7 µM; with SF-539 CNS, 0.294 µM; with M14 melanoma, 0.69 µM; in the experiment with HCT-15 colon it was > 95.2 µM; in the experiment on MCF7 breast, > 52.1 µM; in the experiment on NCI-H460 lung it was 6.17 µM. Further, the TGI is 1.3 µM in the experiment with KM12 colon, > 100 µM with SNB-19 CNS and > 100 µM in the experiment on MOLT-4 leukemia.

With `CC/C=C/[C@@H]1C=C[C@@H]2CCC[C@H]2[C@@H]1CC[C@H](O)[C@H](C)N`, the GI50 was 2.91 µM with PC-3 prostate; 1.67 µM in the experiment on SF-539 CNS; 1.6 µM in the experiment with M14 melanoma; 1.54 µM with HCT-15 colon; 1.52 µM in the experiment with MCF7 breast; 1.84 µM with NCI-H460 lung. Besides, the GI50 was 1.7 µM in the experiment on KM12 colon and 1.72 µM in the experiment on MOLT-4 leukemia. Further, the TGI in the experiment with PC-3 prostate stood at 12.5 µM; with SF-539 CNS, 3.03 µM; in the experiment with M14 melanoma it was 2.98 µM; in the experiment on HCT-15 colon, 2.87 µM; in the experiment on MCF7 breast it was 2.85 µM; with NCI-H460 lung, 3.46 µM. Besides, the results for the TGI in the experiment on KM12 colon and in the experiment on MOLT-4 leukemia were 3.07 µM and 3.68 µM, respectively.

As for `O=C1CCCC1C(=O)Nc1ccc2ccccc2c1` (stereo unspecified), the TGI in the experiment on PC-3 prostate, in the experiment with M14 melanoma, in the experiment with HCT-15 colon, in the experiment on MCF7 breast, in the experiment with NCI-H460 lung and with KM12 colon was > 100 µM each time. Moreover, the TGI with UACC-257 melanoma, in the experiment with SNB-19 CNS and in the experiment on MOLT-4 leukemia was > 100 µM throughout.

Consider `CN(NC(=O)/C(=C/c1ccc(O)cc1)NC(=O)c1ccccc1)c1ccnc2cc(Cl)ccc12`, for which the TGI in the experiment with PC-3 prostate came to 32.7 µM; with SF-539 CNS, 43.3 µM; with M14 melanoma, 36.6 µM; in the experiment with MCF7 breast, 30.4 µM; with NCI-H460 lung, 31.2 µM; in the experiment on KM12 colon, 35.8 µM. Besides, the TGI in the experiment with UACC-257 melanoma is 33.9 µM; in the experiment on SNB-19 CNS it was 32.6 µM; in the experiment with MOLT-4 leukemia, 43 µM.

With `Cc1nc2c(cnn2-c2ccnc3c(C(F)(F)F)cccc23)c(=O)o1`, the GI50 in the experiment with PC-3 prostate, in the experiment on SF-539 CNS, with HCT-15 colon, in the experiment with MCF7 breast, with NCI-H460 lung and in the experiment with KM12 colon was > 100 µM each time. The GI50 with UACC-257 melanoma, in the experiment with SNB-19 CNS and in the experiment with MOLT-4 leukemia was > 100 µM each time. Moreover, the TGI in the experiment with PC-3 prostate, in the experiment with SF-539 CNS, with HCT-15 colon, in the experiment on MCF7 breast, in the experiment on NCI-H460 lung and in the experiment with KM12 colon was > 100 µM throughout. Moreover, the TGI in the experiment with UACC-257 melanoma, in the experiment with SNB-19 CNS and in the experiment with MOLT-4 leukemia was > 100 µM in each case.

As for `Nc1nc2nc3c(nc2c(=O)[nH]1)CN(c1ccc(C(=O)O)cc1)C3=O`, the TGI with PC-3 prostate, in the experiment with SF-539 CNS, in the experiment with M14 melanoma, in the experiment on HCT-15 colon, in the experiment on MCF7 breast and in the experiment with NCI-H460 lung was > 100 µM each time. For the same compound, the TGI in the experiment with KM12 colon, with UACC-257 melanoma and in the experiment with SNB-19 CNS was > 100 µM in each case.

Take `CC(=O)O[C@@H]1C=CC(=O)C2(CC(=O)O[C@@H]2/C=C(\C)CCC=C(C)C)C1` (stereo partly specified): the GI50 in the experiment on PC-3 prostate was 0.383 µM; in the experiment with SF-539 CNS, 0.591 µM; in the experiment with HCT-15 colon it was 0.285 µM; in the experiment on MCF7 breast, 0.0772 µM; with NCI-H460 lung it was 0.378 µM; in the experiment on KM12 colon, 1.3 µM. Further, the GI50 with UACC-257 melanoma was 1.03 µM; in the experiment with SNB-19 CNS, 1.6 µM; with MOLT-4 leukemia it was 0.126 µM. The TGI is 1.19 µM with PC-3 prostate; 1.44 µM in the experiment on SF-539 CNS; 1.28 µM in the experiment with HCT-15 colon; 0.599 µM in the experiment on MCF7 breast; 2.2 µM in the experiment on NCI-H460 lung; 4.16 µM in the experiment with KM12 colon. Moreover, the TGI was determined as 2.6 µM in the experiment with UACC-257 melanoma, 3.58 µM in the experiment with SNB-19 CNS and 1.03 µM in the experiment with MOLT-4 leukemia.

As to `COc1cc([C@@H]2c3cc4c(cc3[C@H](OC3OC5COC(c6ccccc6)OC5C(O)C3O)[C@H]3COC(=O)[C@H]23)OCO4)cc(OC)c1OC` (stereo partly specified), the GI50 in the experiment on PC-3 prostate is 0.432 µM; with M14 melanoma it was 0.351 µM; in the experiment with HCT-15 colon, 0.281 µM; in the experiment on MCF7 breast it was 0.279 µM; in the experiment with NCI-H460 lung it was 0.282 µM; in the experiment on KM12 colon, 0.326 µM. Moreover, the results for the GI50 with UACC-257 melanoma and with SNB-19 CNS were 1.07 µM and 0.405 µM, respectively. Also, the TGI in the experiment with PC-3 prostate is 22.5 µM; with M14 melanoma, 17.9 µM; in the experiment with HCT-15 colon, 13.7 µM; in the experiment on MCF7 breast it was 4.2 µM; in the experiment on NCI-H460 lung, 2.92 µM; in the experiment with KM12 colon, 1.55 µM. Besides, the TGI in the experiment on UACC-257 melanoma was found to be 3.69 µM; with SNB-19 CNS, 16 µM.

Regarding `N#Cc1c(N)nn(C(=O)c2ccc(NC(=O)c3ccccn3)cc2)c1-c1ccc(Cl)cc1`, the GI50 in the experiment on PC-3 prostate was 3.58 µM; in the experiment with SF-539 CNS, 3.21 µM; in the experiment on M14 melanoma, 5.52 µM; in the experiment on HCT-15 colon, 5.04 µM; in the experiment with MCF7 breast, 2.71 µM; with NCI-H460 lung, 4.02 µM. The GI50 is 4.34 µM in the experiment on UACC-257 melanoma, 4.15 µM in the experiment on SNB-19 CNS and 25.7 µM in the experiment with MOLT-4 leukemia. The TGI was > 100 µM in the experiment with PC-3 prostate; 12.5 µM in the experiment with SF-539 CNS; > 100 µM in the experiment on M14 melanoma; > 100 µM with HCT-15 colon; > 100 µM in the experiment with MCF7 breast; 61.7 µM in the experiment on NCI-H460 lung. The results for the TGI in the experiment with UACC-257 melanoma, in the experiment with SNB-19 CNS and in the experiment on MOLT-4 leukemia were 68.3 µM, 33.3 µM and > 100 µM, respectively.
